Values quoted from earlier work, collected in patent US20200261395A1, “METHOD FOR TREATMENT OF ROSACEA” (Sol-Gel Technologies Ltd., priority 2019, published 2020).

Tested on: rosacea lesions
Conditions: BPO as sole active agent

SMILES: O=C(OOC(=O)c1ccccc1)c1ccccc1 [BPO, Benzoyl peroxide]
- Response of rosacea lesions: unresponsive
